Test system: Cholesterol Synthesis in HepG2 Cells
Test: Determination of cholesterol synthesis in HepG2 cells (14C-acetate incorporation into the non-saponifiable lipid/sterol fraction)
Type: cell-based
Settings: mean of three
Experimental: Determination of Cholesterol Synthesis in HepG2 Cells (cf. Fahrner, J. et al., Eur. J. Biochem. 213: 1067-1073 (1993); Gebhardt, R., Lipids 28: 613-619 (1993); Pill, J. et al., Z. Anal. Chem. 332: 512-513 (1985)
To detect an effect on cholesterol biosynthesis by test substances, HepG2 cell cultures were used. These cells were cultured up to confluence in 35 mm 6-well cell culture incubation dishes in DMEM medium (Gibco, Eggenstein, Germany) with 2 mM gentamin, 10% fetal calf serum, 40 U/ml of streptomycin and 50 U/ml of penicillin. Frozen cells were cultured and passaged for one week before use. The confluent cells were then incubated in serum-free Williams Medium E for 4 hours at 37° C. with the test substances. ^14C-Acetate (18.5 kBq/ml; 0.5 μCi/ml) was then added to the solutions. The test substances were diluted in DMSO and used at the concentrations specified. […]
Incorporation of ^14C-acetate into the non-saponifiable lipid fraction (sterol fraction) was determined by the following method: 1.4 ml of homogenates were incubated with 2.8 ml of 0.5 M KOH in EtOH with shaking for 1 hour at 70° C. […] The ^14C activity in the samples was determined, after addition of 10 ml of scintillation solution (Ultima Gold®, Packard, Merident, Conn.) in a scintillation counter. The measured values shown are to be understood as means of three independent culture dishes per test solution. […]

CC(C)=CCC/C(C)=C/CC/C(C)=C/CC[C@]1(C)CCc2cc(O)c(C)c(C)c2O1 [R-γ-Tocotrienol]
inhibition of 14C-acetate incorporation (concentration 5×10^−6 M, relative to DMSO control (100%)): approximately 20%
maximum significant inhibition of 14C-acetate incorporation (concentrations ≧5×10^−5 M, relative to DMSO control): approximately 50%

Source: patent US6977270B2, “Tocotrienolquinone cyclization product with an anti-hypercholesterol effect” (BASF Aktiengesellschaft, priority 2000, dated 2005)
